Data: patent US20260124201A1, “CYCLOPENTANE COMPOUND” (Kissei Pharmaceutical Co., Ltd., priority 2022, published 2026)

Target: T1, human OX2R (Homo sapiens, UniProt O43614)
T1 construct: expressed in transfected cells
T1 sequence (O43614 1-444): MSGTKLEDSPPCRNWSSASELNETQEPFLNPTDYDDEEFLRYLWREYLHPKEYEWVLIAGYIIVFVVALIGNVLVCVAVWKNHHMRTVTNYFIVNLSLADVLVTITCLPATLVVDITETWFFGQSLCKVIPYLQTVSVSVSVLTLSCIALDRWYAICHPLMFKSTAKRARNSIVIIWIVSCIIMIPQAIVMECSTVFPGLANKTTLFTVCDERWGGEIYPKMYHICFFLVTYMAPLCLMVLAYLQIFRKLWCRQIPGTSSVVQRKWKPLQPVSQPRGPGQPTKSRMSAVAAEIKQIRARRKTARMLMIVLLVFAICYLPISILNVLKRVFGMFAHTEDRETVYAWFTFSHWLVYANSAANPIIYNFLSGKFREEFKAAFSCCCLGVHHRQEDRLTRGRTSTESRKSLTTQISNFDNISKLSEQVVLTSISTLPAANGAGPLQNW
Assay: Measurement of OX2R agonist activity (intracellular calcium concentration change, Fluo4-AM, FDSS 7000)
Assay type: cell-based
Details: compound concentration 10 μM; human OX2R-expressing CHO-K1 cells; 1 μM human orexin A peptide = 100%, medium alone = 0%
Source text: The following abbreviations in the description, the figures and the tables have the following meanings, respectively. • AZADOL (registered trademark): 2-Hydroxy-2-azaadamantane • Boc2O: di-tert-butyl dicarbonate • DIPEA: N,N-diisopropylethylamine • DCM: dichloromethane • DMAP: 4-dimethylaminopyridine • DMF: N,N-dimethylformamide • DMSO: dimethylsulfoxide • Deoxo-Fluor: bis(2-methoxyethyl)-aminosulfur trifluoride • HATU: O-(7-azabenzotriazol-1-yl)-N,N,N′,N′-tetramethyluronium hexafluorophosphate • LDA: lithium diisopropylamide • MeCN: acetonitrile • Me4tBuXPhos: 2-di-tert-butylphosphino-3,4,5,6-tetramethyl-2′,4′,6′-triisopropyl-1,1′-biphenyl • MTBE: methyl tert-butyl ether • NMP: N-methylpyrrolidone • PdCl2(PPh3)2: dichlorobis(triphenylphosphine)palladium(II) • Pd(dba)2: bis(dibenzylideneacetone)palladium(0) • Pd2(dba)3: tris(dibenzylideneacetone)dipalladium(0) • Pd(dppf)Cl2: [1,1′-bis(diphenylphosphino)ferrocene]dichloropalladium(II) • Pd(PPh3)4: tetrakis(triphenylphosphine)palladium(0) • TEA: triethylamine • TFA: trifluoroacetic acid • THF: tetrahydrofuran • Xphos: 2-dicyclohexylphosphino-2′,4′,6′-triisopropylbiphenyl • Xphos Pd G3: (2-dicyclohexylphosphino-2′,4′,6′-triisopropyl-1,1′-biphenyl)[2-(2′-amino-1,1′-biphenyl)]palladium(II) methanesulfonic acid salt • 10% Pd/C: Palladium 10% on Carbon (wetted with ca. 55% water) • APS: aminopropylated silica gel • ODS: octadecyl-silylated silica gel • Method A: column chromatography with an aminopropylated silica gel column followed by a silica gel column • Chiral preparative column chromatography: chiral preparative column chromatography using YMC CHIRALART Cellulose-SB • Ref. No.: Reference Example Number • Str.: structural formula • Ex. No.: Example Number • Phys. data: physical data • ^1H-NMR: hydrogen nuclear magnetic resonance spectrum • CDCl3: chloroform-d1 • MS: mass spectrometry (The measured values in the tables were measured by electrospray ionization or multiionization using electrospray ionization-atmospheric pressure chemical ionization.) • Act.: activation rate of test substance at a compound concentration of 10 μM calculated by setting the fluorescence intensity obtained when human orexin A peptide was added at a concentration of 1 μM as 100% and the fluorescence intensity obtained when the medium alone was added as 0% • CHO: Chinese hamster ovary • HEPES: 2-[4-(2-hydroxyethyl)-1-piperazinyl]ethanesulfonic acid
A human OX2R sequence (Accession No. NM_001526.4) was inserted into the multiple cloning site of pcDNA3.4 (Life Technologies Japan Ltd.) to clone a plasmid vector for human OX2R expression. The plasmid was introduced into CHO-K1 cells using Lipofectamine 2000 (Life Technologies Japan Ltd.). Two days later, the transgenic CHO-K1 cells were passaged into 175T flasks and cultured selectively for 6 days. As a selection medium, Ham's F-12 Nutrient Mix (Life Technologies Japan Ltd.), containing Geneticin (registered trademark) (Life Technologies Japan Ltd.) at a final concentration of 1 mg/mL and inactivated fetal bovine serum (Biowest) at a final concentration of 10%, was used. After the selective culture, the cells were reseeded into 96-well plates, and a human OX2R-expressing cell line was obtained by limiting dilution.
The agonist effects of test substances on human OX2R were evaluated using the intracellular calcium concentration-change upon stimulation as an indicator. A day before measurement of the intracellular calcium concentrations, human OX2R-expressing cells suspended in a medium were seeded into 384-well plates at 5×10^3 cells/50 μL/well and cultured overnight in an incubator set at 37° C. and 5% CO2. After incubation, the medium was removed and replaced with 20 μL of a loading buffer. […]

Compared with `CS(=O)(=O)N[C@H]1CC[C@](Cc2cccc(-c3ccccc3)c2)(C(=O)N2CCCC2C(F)(F)F)C1` (relative stereo) [Example 71, N-((1S*,3R*)-3-([1,1′-Biphenyl]-3-ylmethyl)-3-(2-(trifluoromethyl)pyrrolidine-1-carbonyl)cyclopentyl)methanesulfonamide], `C[C@@H]1CCCN1C(=O)[C@@]1(Cc2cccc(-c3ccccc3)c2)CC[C@H](NS(C)(=O)=O)C1` (relative stereo) [Example 9] is higher in “Act. (%): activation rate of test substance” value (shortened to “Act. (%): activation rate”): 41% for the first, 58% for the second.

First: CS(=O)(=O)N[C@H]1CC[C@](Cc2cccc(-c3ccccc3)c2)(C(=O)NCC(F)(F)F)C1 (relative stereo) [Example 74, (1R*,3S*)-1-([1,1′-Biphenyl]-3-ylmethyl)-3-(methylsulfonamido)-N-(2,2,2-trifluoroethyl)cyclopentane-1-carboxamide]
Second: CCNC(=O)[C@@]1(Cc2cccc(-c3ccccc3)c2)CC[C@H](NS(C)(=O)=O)C1 (relative stereo) [Example 1, (1R*,3S*)-1-([1,1′-Biphenyl]-3-ylmethyl)-N-ethyl-3-(methylsulfonamido)cyclopentane-1-carboxamide]
The “Act. (%): activation rate” value of the first is lower: 33% for the first, 50% for the second.

Going from `CON(C)C(=O)[C@]1(Cc2ccc(F)c(-c3ncc(F)cn3)c2)C[C@@H](NS(C)(=O)=O)C(F)(F)C1` (relative stereo) [Example 42] to `CON(C)C(=O)[C@]1(Cc2cc(-c3ncc(F)cn3)ccc2F)C[C@@H](NS(C)(=O)=O)C(F)(F)C1` (relative stereo) [Example 43], the “Act. (%): activation rate” value rises from 87% to 93%.

Going from `CON(C)C(=O)[C@@]1(Cc2ccc(O)c(-c3ncc(F)cn3)c2)CC[C@H](NS(C)(=O)=O)C1` [Example 55, (1R,3S)-1-(3-(5-Fluoropyrimidin-2-yl)-4-hydroxybenzyl)-N-methoxy-N-methyl-3-(methylsulfonamido)cyclopentane-1-carboxamide] to `CON(C)C(=O)[C@@]1(Cc2cccc(-c3ncc(F)cn3)c2)CC[C@H](NS(C)(=O)=O)C1` (relative stereo) [Example 17], the “Act. (%): activation rate” value falls from 106% to 99%.

Compared with `COc1cnc(-c2cccc(C[C@]3(C(=O)N(C)OC)CC[C@H](NS(C)(=O)=O)C3)c2)nc1` (relative stereo) [Example 20], `CON(C)C(=O)[C@@]1(Cc2cccc(-c3ccco3)c2)CC[C@H](NS(C)(=O)=O)C1` (relative stereo) [Example 14] is higher in “Act. (%): activation rate” value: 75% for the first, 93% for the second.

First: CN(O)C(=O)[C@@]1(Cc2cccc(-c3ncccn3)c2)CC[C@H](NS(C)(=O)=O)C1 (relative stereo) [Example 30, (1R*,3S*)—N-Hydroxy-N-methyl-3-(methylsulfonamido)-1-(3-(pyrimidin-2-yl)benzyl)cyclopentane-1-carboxamide]
Second: CCN(C)C(=O)[C@@]1(Cc2cccc(-c3ncccn3)c2)CC[C@H](NS(C)(=O)=O)C1 (relative stereo) [Example 28, (1R*,3S*)—N-Ethyl-N-methyl-3-(methylsulfonamido)-1-(3-(pyrimidin-2-yl)benzyl)cyclopentane-1-carboxamide]
The “Act. (%): activation rate” value of the first is lower: 48% for the first, 92% for the second.

Going from `CON(C)C(=O)[C@@]1(Cc2cccc(-c3ncccn3)c2)CC[C@H](NS(=O)(=O)C2(C)CC2)C1` (relative stereo) [Example 31, (1R*,3S*)—N-Methoxy-N-methyl-3-((1-methylcyclopropane)-1-sulfonamido)-1-(3-(pyrimidin-2-yl)benzyl)cyclopentane-1-carboxamide] to `CON(C)C(=O)[C@@]1(Cc2cccc(-c3ncccn3)c2)C[C@H](F)[C@H](NS(C)(=O)=O)C1` (relative stereo) [Example 33], the “Act. (%): activation rate” value falls from 107% to 83%.

Going from `CON(C)C(=O)[C@@]1(Cc2cccc(-c3ccccc3)c2)CC[C@H](NS(C)(=O)=O)C1` (relative stereo) [Example 2, (1R*,3S*)-1-([1,1′-Biphenyl]-3-ylmethyl)-N-methoxy-N-methyl-3-(methylsulfonamido)cyclopentane-1-carboxamide] to `CNS(=O)(=O)N[C@H]1CC[C@](Cc2cccc(-c3ccccc3)c2)(C(=O)N(C)OC)C1` (relative stereo) [Example 6, (1R*,3S*)-1-([1,1′-Biphenyl]-3-ylmethyl)-N-methoxy-N-methyl-3-((N-methylsulfamoyl)amino)cyclopentane-1-carboxamide], the “Act. (%): activation rate” value rises from 84% to 92%.

Going from `CON(C)C(=O)[C@@]1(Cc2ccc(F)c(-c3ncc(F)cn3)c2)CC[C@H](NS(=O)(=O)C(F)F)C1` [Example 51, (1R,3S)-3-((Difluoromethyl)sulfonamido)-1-(4-fluoro-3-(5-fluoropyrimidin-2-yl)benzyl)-N-methoxy-N-methylcyclopentane-1-carboxamide] to `CON(C)C(=O)[C@@]1(Cc2ccc(F)c(-c3ncc(F)cn3)c2)CC[C@H](NS(=O)(=O)CF)C1` [Example 50, (1R,3S)-1-(4-Fluoro-3-(5-fluoropyrimidin-2-yl)benzyl)-3-((fluoromethyl)sulfonamido)-N-methoxy-N-methylcyclopentane-1-carboxamide], the “Act. (%): activation rate” value rises from 98% to 110%.

First: CON(C)C(=O)[C@@]1(Cc2cccc(-c3ncc(F)cn3)c2)C[C@H](F)[C@H](NS(=O)(=O)N(C)C)C1 (relative stereo) [Example 35, (1R*,3R*,4S*)-3-((N,N-Dimethylsulfamoyl)amino)-4-fluoro-1-(3-(5-fluoropyrimidin-2-yl)benzyl)-N-methoxy-N-methylcyclopentane-1-carboxamide]
Second: CON(C)C(=O)[C@@]1(Cc2cc(-c3ncc(F)cn3)ccc2F)C[C@H](F)[C@H](NS(C)(=O)=O)C1 (relative stereo) [Example 37, (1R*,3S*,4R*)-3-Fluoro-1-(2-fluoro-5-(5-fluoropyrimidin-2-yl)benzyl)-N-methoxy-N-methyl-4-(methylsulfonamido)cyclopentane-1-carboxamide]
The “Act. (%): activation rate” value of the first is higher: 92% for the first, 90% for the second.

First: CS(=O)(=O)N[C@H]1CC[C@](Cc2cccc(-c3ccccc3)c2)(C(N)=O)C1 (relative stereo) [Example 72, (1R*,3S*)-1-([1,1′-Biphenyl]-3-ylmethyl)-3-(methylsulfonamido)cyclopentane-1-carboxamide]
Second: C=CS(=O)(=O)N[C@H]1CC[C@](Cc2ccc(F)c(-c3ncc(F)cn3)c2)(C(=O)N(C)OC)C1 [Example 53, (1R,3S)-1-(4-Fluoro-3-(5-fluoropyrimidin-2-yl)benzyl)-N-methoxy-N-methyl-3-(vinylsulfonamido)cyclopentane-1-carboxamide]
The “Act. (%): activation rate” value of the first is lower: 23% for the first, 106% for the second.

In the case of `CON(C)C(=O)[C@@]1(Cc2ccc(F)c(-c3ncc(F)cn3)c2)CC[C@H](NS(=O)(=O)C2COC2)C1` [Example 54, (1R,3S)-1-(4-Fluoro-3-(5-fluoropyrimidin-2-yl)benzyl)-N-methoxy-N-methyl-3-(oxetane-3-sulfonamido)cyclopentane-1-carboxamide], the “Act. (%): activation rate” value is reported as 90%.
